Source: EP0167958A2, “Oral solid pharmaceutical form with sequential action for the administering of drugs with ulcerogenic side effect” (LABORATORIO ITALIANO BIOCHIMICO FARMACEUTICO LISAPHARMA …, priority 1984, dated 1986)

System: gastric mucosa
Assay: test of pylorus ligature in rats (ulcerating index, inhibition of FANS-induced gastric lesions)
Assay type: in vivo, Charles River Wistar rats
Conditions: p.o., pylorus-ligated rats, 6 hours
Protocol: Several compositions containing sucralfate : FANS in weight ratios comprised within the range of from 1: 4 to 8 : 1 have been tested on rats by means of the test of pylorus ligature according to the technique Linda J. et al., J. Pharmac., 1978, 30, 244 - 246 "Inhibitors of Gastric Lesions in the Rat".
The testing has been carried out on Charles River Wis tar rats of 230 - 270 g of weight and in the number of 8 rats per each group. The rats, fasting from 15 hours, have been submitted to etheric anesthesia and then to the liga ture of the pylorus. The rats have been treated, immediate ly after the recovery, by means of gastric probe, with the FANS alone, with the FANS in the sucralfate-FANS form with sequential action according to the present invention, and by means of the administering of sucralfate first, and then, after a 10 minutes interval, of FANS.
The single active principles have been administered as aqueous suspension in sodium-CMC at 0.5% p.o.
Six hours later than the intervention, the rats have been sacrificed and the stomach, after having been withdrawn, has been cut along the line of the greater curvature. The stomach, after having been slightly washed with bidistilled water has been spread out and mounted on a support for the'evaluation of induced ulceration. The alterations detected on the gastric mucosa have been quantified on the basis of their type and largeness, with a value ranging from 0 to 1 (ulcerating index, UI), according to the following empirical scale: • 0 = mucose not damaged (control submitted to surgical handling and to placebo) • 0.25 = diffused accentuated hyperemia • 0.50 = diffused erosion • 0.75 = diffused hemorrhagic ulceration • 1 = diffused hemorrhagic ulceration with perforation and damaging of the whole gastric mucosa.
The activity of the form of sucralfate and FANS with sequential action according to the invention has been expressed as percentage inhibition of the lesion relatively to that observed in the control group as treated with the ligature of pylorus and administering of FANS only, and com pared to that obtained from the contemporary administering of sucralfate and FANS. The ID 50 (Inhibiting Dosis 50) was computated by the probit method.

For “3,4,5,6-tetra-(polyhydroxyalumino)-n-D-glu· copyranosyl sulphate - 2,3,4,5-tetra-(polyhydroxyalumino)-B-D-fructofuranoside sulphate [sucralfate]”, the “Inhibiting Dosis 50 of sucralfate for the ulcerogenic activity of some FANS” value (“Inhibiting Dosis 50 of sucralfate” below) (Administering of the sucralfate-FANS form with sequential action, FANS: Diclofenac Na (50 mg/kg)) was 96.6 mg, the “Inhibiting Dosis 50 of sucralfate” value (Administering of the sucralfate-FANS form with sequential action, FANS: Indomethacin (100 mg/kg)) was 97 mg and the “Inhibiting Dosis 50 of sucralfate” value (Administering of the sucralfate-FANS form with sequential action, FANS: Sodium indoprofen betainate (200 mg/kg as indoprofen)) was 85.6 mg. For the same substance, the “Inhibiting Dosis 50 of sucralfate” value (Contemporary administering of sucralfate and of FANS, FANS: Diclofenac Na (50 mg/kg)) was 157 mg, the “Inhibiting Dosis 50 of sucralfate” value (Contemporary administering of sucralfate and of FANS, FANS: Indomethacin (100 mg/kg)) was 204 mg and the “Inhibiting Dosis 50 of sucralfate” value (Contemporary administering of sucralfate and of FANS, FANS: Sodium indoprofen betainate (200 mg/kg as indoprofen)) was 206 mg.
